This is an account of results in patent publication US9242970B2 (ACTELION PHARMACEUTICALS LTD., priority 2010, dated 2016).

Like-named read-outs stand apart in the source and are kept apart here. Where only a bound is given, the exact number is not on record here.

The target in one assay is human orexin-1 receptor (Homo sapiens (Human), UniProt O43613). The assay is described as follows: In vitro assay: intracellular calcium measurements (FLIPR), antagonistic activity. The assay is classed as cell-based. The note with it: CHO cells, 3 nM orexin-A, marked values are geometric means of n = 2-6, read-out: IC50 OX1. In general terms: A change in cytosolic calcium serves as a functional read-out for many receptors and channels.
Chain of human orexin-1 receptor (O43613 whole entry): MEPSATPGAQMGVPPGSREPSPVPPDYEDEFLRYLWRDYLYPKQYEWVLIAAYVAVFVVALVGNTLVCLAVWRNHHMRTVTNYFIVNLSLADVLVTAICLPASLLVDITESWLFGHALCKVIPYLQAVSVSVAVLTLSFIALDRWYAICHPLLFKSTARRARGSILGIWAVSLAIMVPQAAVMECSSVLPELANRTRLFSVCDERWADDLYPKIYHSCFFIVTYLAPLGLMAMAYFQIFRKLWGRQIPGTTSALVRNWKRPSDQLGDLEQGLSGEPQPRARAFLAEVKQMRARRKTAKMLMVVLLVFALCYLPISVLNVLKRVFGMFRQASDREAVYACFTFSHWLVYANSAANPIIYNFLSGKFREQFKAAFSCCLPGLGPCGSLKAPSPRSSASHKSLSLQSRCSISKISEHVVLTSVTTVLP

Another assay concerns the target human orexin-2 receptor (Homo sapiens (Human), UniProt O43614). The description is as above. The assay is classed as cell-based. The following applies: CHO cells, 3 nM orexin-A, marked values are geometric means of n = 2-6, read-out: IC50 OX2.
Setting [1] is: compound incubation time of 10 min.

Chain of human orexin-2 receptor (O43614 whole entry): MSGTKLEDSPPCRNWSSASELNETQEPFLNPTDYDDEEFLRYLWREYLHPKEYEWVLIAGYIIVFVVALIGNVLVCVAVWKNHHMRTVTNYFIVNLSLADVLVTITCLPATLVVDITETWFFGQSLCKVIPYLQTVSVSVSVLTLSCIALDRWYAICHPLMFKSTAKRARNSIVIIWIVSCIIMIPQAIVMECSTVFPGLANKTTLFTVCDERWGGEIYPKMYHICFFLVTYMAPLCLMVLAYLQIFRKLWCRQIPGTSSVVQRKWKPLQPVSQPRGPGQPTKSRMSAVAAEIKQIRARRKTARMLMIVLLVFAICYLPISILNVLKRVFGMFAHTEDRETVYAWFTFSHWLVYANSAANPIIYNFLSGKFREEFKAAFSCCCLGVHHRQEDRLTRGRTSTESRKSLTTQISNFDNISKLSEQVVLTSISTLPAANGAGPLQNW

Regarding `COc1cccc(OCC(O)CO)c1C1CCCC(=O)N1Cc1ccc(OC(F)(F)F)cc1` (stereo not shown) [Example 214, 6-(2-(2,3-dihydroxypropoxy)-6-methoxyphenyl)-1-(4-(trifluoromethoxy)benzyl)piperidin-2-one], the IC50 (commonly the concentration at which inhibition is half-maximal) at human orexin-1 receptor (setting [1]) is 3540 nM; at human orexin-2 receptor (setting [1]), 735 nM.

As to `COc1cccc(OC)c1C1CCC(C)(C)C(=O)N1Cc1ccc(OC(F)(F)F)cc1` (stereo not shown) [Example 215, 6-(2,6-dimethoxyphenyl)-3,3-dimethyl-1-(4-(trifluoromethoxy)benzyl)piperidin-2-one], the IC50 was 1410 nM on human orexin-1 receptor (setting [1]) and 1290 nM at human orexin-2 receptor (setting [1]).

Regarding `COc1cccc(OC)c1C1CCC(C)C(=O)N1Cc1ccc(OC(F)(F)F)cc1` (stereo not shown) [Example 216, 6-(2,6-dimethoxyphenyl)-3-methyl-1-(4-(trifluoromethoxy)benzyl)piperidin-2-one], the 50% inhibitory concentration (IC50) worked out at 40 nM at human orexin-1 receptor (setting [1]) and 894 nM on human orexin-2 receptor (setting [1]).

Turning to `COc1cccc(OC)c1C1CC(C)(C)C(=O)N1Cc1ccc(OC(F)(F)F)cc1` (stereo not shown) [Example 217, 5-(2,6-dimethoxyphenyl)-3,3-dimethyl-1-(4-(trifluoromethoxy)benzyl)pyrrolidin-2-one], the IC50 at human orexin-1 receptor (setting [1]) is 22 nM; on human orexin-2 receptor (setting [1]), 252 nM.

`COc1cccc(OC)c1C1CCCC(=O)N1Cc1ccnc(-c2nccs2)c1` (stereo not shown) [Example 219, 6-(2,6-dimethoxyphenyl)-1-((2-(thiazol-2-yl)pyridin-4-yl)methyl)piperidin-2-one]: the IC50 on human orexin-1 receptor (compound incubation 120 min) worked out at 19 nM; on human orexin-2 receptor (compound incubation 120 min) it was 9 nM.

On to `COc1cccc(Cl)c1C1CCCC(=O)N1Cc1ccc(OC(F)(F)F)cc1` (stereo not shown) [Example 221, 6-(2-chloro-6-methoxyphenyl)-1-(4-(trifluoromethoxy)benzyl)piperidin-2-one], for which the IC50 at human orexin-1 receptor (setting [1]) worked out at 4880 nM; at human orexin-2 receptor (setting [1]) it was 154 nM.

On to `COc1cccc(C)c1C1CCCC(=O)N1Cc1ccc(OC(F)(F)F)cc1` (stereo not shown) [Example 222, 6-(2-methoxy-6-methylphenyl)-1-(4-(trifluoromethoxy)benzyl)piperidin-2-one], for which the IC50 at human orexin-1 receptor (setting [1]) came out at 4380 nM; at human orexin-2 receptor (setting [1]) it was 268 nM.

As to `COc1cccc(C(F)(F)F)c1C1CCCC(=O)N1Cc1ccc(OC(F)(F)F)cc1` (stereo not shown) [Example 223, 6-(2-methoxy-6-(trifluoromethyl)phenyl)-1-(4-(trifluoromethoxy)benzyl)piperidin-2-one], the half-inhibitory concentration (IC50) on human orexin-1 receptor (setting [1]) was more than 21600 nM; at human orexin-2 receptor (setting [1]), 2950 nM.

With `O=C1CCCC(c2c(F)cccc2F)N1Cc1ccc(OC(F)(F)F)cc1` (stereo not shown) [Example 224, 6-(2,6-difluorophenyl)-1-(4-(trifluoromethoxy)benzyl)piperidin-2-one], the 50% inhibitory concentration (IC50) at human orexin-1 receptor (setting [1]) amounted to 3190 nM; on human orexin-2 receptor (setting [1]), 2470 nM.

Take `COc1cc(F)c(C2CCCC(=O)N2Cc2ccc(OC(F)(F)F)cc2)c(F)c1` (stereo not shown) [Example 225, 6-(2,6-difluoro-4-methoxyphenyl)-1-(4-(trifluoromethoxy)benzyl)piperidin-2-one]: the IC50 at human orexin-1 receptor (setting [1]) stood at 4210 nM; at human orexin-2 receptor (setting [1]), 5480 nM.

For `Cc1ccc(F)c(C2CCCC(=O)N2Cc2ccc(OC(F)(F)F)cc2)c1F` (stereo not shown) [Example 226, 6-(2,6-difluoro-3-methylphenyl)-1-(4-(trifluoromethoxy)benzyl)piperidin-2-one], the values for the IC50 on human orexin-1 receptor (setting [1]) and at human orexin-2 receptor (setting [1]) were 5180 nM and 2440 nM, respectively.

For the compound `O=C1CCCC(c2c(F)cccc2C(F)(F)F)N1Cc1ccc(OC(F)(F)F)cc1` (stereo not shown) [Example 227, 6-(2-fluoro-6-(trifluoromethyl)phenyl)-1-(4-(trifluoromethoxy)benzyl)piperidin-2-one], the figures for the IC50 on human orexin-1 receptor (setting [1]) and at human orexin-2 receptor (setting [1]) were 3500 nM and 5900 nM, respectively.

For `O=C1CCCC(c2c(Cl)cccc2Cl)N1Cc1ccc(OC(F)(F)F)cc1` (stereo not shown) [Example 228, 6-(2,6-dichlorophenyl)-1-(4-(trifluoromethoxy)benzyl)piperidin-2-one], the results for the half-inhibitory concentration (IC50) on human orexin-1 receptor (setting [1]) and at human orexin-2 receptor (setting [1]) were 2970 nM and 456 nM, respectively.

For `O=C1CCCC(c2c(F)cccc2Cl)N1Cc1ccc(OC(F)(F)F)cc1` (stereo not shown) [Example 229, 6-(2-chloro-6-fluorophenyl)-1-(4-(trifluoromethoxy)benzyl)piperidin-2-one], the IC50 on human orexin-1 receptor (setting [1]) was found to be 2920 nM; on human orexin-2 receptor (setting [1]) it was 1190 nM.
